According to patent publication US20190000803A1, “CHONDROITIN COMPLEXES FOR TRANSCUTANEOUS ABSORPTION” (Altergon S.A., priority 2012, published 2019):
One block for each compound: values may come before it.

Assays:
[1] = Dialysis equilibrium study of diclofenac release from diclofenac-chondroitin complexes; format: physicochemical; conditions: 2 KDa cut-off, 100 mL in 2 L water, 25° C.
[2] = In vivo transcutaneous absorption of diclofenac gels in nude mice; parameters: species or system Charles River nude mice; conditions: conclusion from tables 8-10
Protocol: During the study the animals were kept in individual cages, with unrestricted access to food and water.
The animals were euthanised 1, 5 and 10 h after the application, as reported in the trial design in table 7. Immediately after euthanisation the gel application area was washed thoroughly to discriminate between the radioactivity applied and the radioactivity absorbed by the skin. The treated skin areas, liver and blood were recovered from the euthanised animals, and the samples were weighed and frozen immediately after removal. The urine of the animals was recovered from the cages by washing.

[3] = Franz cell, human skin; cited from earlier work
[4] = Topical absorption and distribution of [3H]chondroitin gels in nude mice; format: in vivo, Charles River nude mice
Protocol: 60 five-month-old Charles River nude mice of both sexes were used as experimental model to evaluate the transcutaneous absorption of chondroitin. The animals were randomised into 12 groups of 5 which, as reported in the study design in table 1, were treated with 50 mg of [^3H]chondroitin gel with different MWs, prepared as described in example 1. During the study the animals were kept in individual cages, with unrestricted access to food and water.
The animals were euthanised 1, 5, 10 and 20 h after the application, as reported in the trial design in table 1. Immediately after euthanisation the gel application area was thoroughly washed until no detectable traces of radioactivity remained in the washing water, in order to discriminate between the radioactivity applied and the radioactivity absorbed by the skin. The treated skin areas, liver and blood were recovered from the euthanised animals, and the samples were weighed and frozen immediately after removal. The urine of the animals was recovered from the cages by washing.
Skin, liver and blood samples (150-200 mg) were solubilised in Soluene […] at ambient temperature. The radioactivity was measured by liquid-phase scintillation on the solubilised samples and the urine.

[5] = Absorption of diclofenac by human skin using the Franz cell; format: in vitro ADME; conditions: compared with absence of the polysaccharide or presence of chondroitin sulphate
Protocol: The skin was frozen to −20° C. immediately after removal, and kept at that temperature until the time of use. Before being placed in the Franz cells, the frozen skin was cleaned of subcutaneous fat, so that only the stratum corneum, the epidermis and the dermis were used, and cut to a size suitable for positioning in the Franz cell, with the stratum corneum facing upwards. Before the study began, the cell was maintained at 30° C. for 10 h with continual stirring of the receptor solution consisting of 10 mL of HBSS (Hank's Buffered Saline Solutions). The surface on which the formulation was deposited measured about 3 cm^2. Before application of the gel in the cells, the receptor solution was replaced, taking care to eliminate all air bubbles between skin and solution.
At the indicated times the receptor phase was recovered and the skin surface was washed thoroughly to remove all the unabsorbed gel. The skin was recovered, homogenised and digested for 10 h under stirring at 30° C. with collagenase (5,200 I/g of skin) in 10 mM of phosphate buffer pH 7.4. At the end of the incubation, 0.4 volumes of ethanol were added and the mixture was centrifuged at 10,000 rpm for 20 min. […] The eluate was monitored at 276 nm.

[6] = Absorption of ketorolac by human skin using the Franz cell; format: in vitro ADME; conditions: compared with absence of the polysaccharide
Protocol: 10 mg of the following gels was applied to the skin surface: a) tromethamine ketorolac salt gel (per gram of gel: 100 mg of polyethylene glycol, 1 mg of benzyl alcohol, 200 mg of tromethamine ketorolac salt and water q.s. for 1 g, dissolved at 50° C. under vigorous stirring); b) tromethamine ketorolac salt-chondroitin gel (0.535 moles of tromethamine ketorolac salt/mole of disaccharide chondroitin units; per gram of gel: 100 mg of polyethylene glycol, 1 mg of benzyl alcohol, 200 mg of chondroitin MW 62 KDa, 100 mg of tromethamine ketorolac salt and water q.s. for 1 g, dissolved at 50° C. under vigorous stirring).
The quantity of ketorolac present in the skin washing solution (unabsorbed part), in the enzymatic tissue digestate (part absorbed by the skin) and in the receptor fluid (part that crossed the skin structure) was determined quantitatively by HPLC. The tests were conducted on a Waters model 746 (USA) HPLC, equipped with a μ-bondapack C18 column (150×4.6 millimetres). A solution of acetonitrile, deionised water and orthophosphoric acid (45:54.5:0.5 in vol.), with a final pH of 3.5, was used as mobile phase, operating with a flow rate of 1 mL/min. The eluate was monitored at 280 nm. Quantitation was performed by measuring the ratios between the peak area of ketorolac and the peak area of the internal standard, consisting of a naproxen solution with a known titre.

% OD275 present in the dialysis medium ([1]; 1 h): 85%
% OD275 present in the dialysis medium ([1]; 2 h): 94%
% OD275 present in the dialysis medium ([1]; 4 h): 96%
% OD275 present in the dialysis medium ([1]; 8 h): 95%
% OD275 present in the dialysis medium ([1]; 16 h): 96%
Compound: O=C(O)Cc1ccccc1Nc1c(Cl)cccc1Cl [Diclofenac only, 2-(2-[2,6-dichlorophenylamino]phenyl) ethanoic acid]

acts as transdermal carrier of diclofenac [2]: not
Compound: chondroitin sulphate
ability to transport diclofenac and ibuprofen in the skin [3]: are not

radioactivity in skin, % of dose applied ([4]; skin, 1 h after topical application of 50 mg gel): about 50 % of dose applied
radioactivity in urine, % of dose applied ([4]; urine, 20 h): about 25 % of dose applied
absorption of diclofenac in the presence of chondroitin [5]: increases significantly
absorption of ketorolac in the presence of chondroitin [6]: increases significantly
Compound: chondroitin
acts as transdermal carrier of diclofenac [2]: acts as an efficient transdermal carrier of diclofenac

Compound: heparin
ability to transport diclofenac and ibuprofen in the skin [3]: are not

Compound: hyaluronic acid
ability to transport diclofenac and ibuprofen in the skin [3]: able to transport diclofenac and ibuprofen in the skin
